Assay results taken from patent US20250127918A1, “SITE-SELECTIVE CONJUGATION OF A PHARMACEUTICAL AGENT TO AN ANTIBODY USING AN AFFINITY PEPTIDE” (priority 2023, published 2025).

What was measured:
Format in all cases: in vivo, mouse
[1] = test system: Lep^ob/ob mice; assay: Safety profile of GLP-1a conjugates in Lep^ob/ob mice; settings: 10 mg/kg; for Number of mice showing significant aggressiveness / Number of mice with Piloerection, Moderate: cohort of 3 mice
Protocol: In Lep^ob/ob obese mice, two routes were assessed for the 10 mg/kg dose: SC and IP (Table 21). […] Investigations about the PD of 2a,3a following SC injection of 10 mg/kg were pursued in both mice models.
(§1) All animal experiments were performed under an MIT institute approved IACUC protocol following federal, state, and local guidelines for the care and use of animals (protocol number #0821-058-24). The studies were performed either on 35-45 g (12-16 weeks-old) wild-type female Swiss mice, 25-30 g (14-20 weeks-old) male and female C57BL/6J mice, or 55-70 g (16 weeks-old) male and female obese Lep^ob/ob mice, all purchased from The Jackson Laboratory (MA, USA). Mice were housed with free access to normal food diet and water ad libitum unless stated otherwise for the need of the experiment. […] Intraperitoneal injections (IP) were performed on non-anesthetized mice, in the lower right abdominal quadrant. Blood collection for the ELISA assays and biodistributions was performed as a terminal procedure by heart puncture immediately after the sacrifice. For Ip-GTT and Ip-ITT mice were restrained and gently pressed at the tail following tail pricks. The animals were sacrificed by CO2 inhalation followed by cervical dislocation. All compounds injected in mice were either USP grade, sterile, or filtered using 0.22 μm.

[2] = test system: WT Swiss mice; assay: Toxicity / safety profile of GLP1 conjugates in WT Swiss mice
Protocol: All animal experiments were performed under an MIT institute approved IACUC protocol following federal, state, and local guidelines for the care and use of animals (protocol number #0821-058-24). The studies were performed on 30-35 g (5-8 weeks-old) healthy female Swiss mice, purchased from The Jackson Laboratory (MA, USA). Mice were housed with free access to food and water ad libitum unless stated otherwise for the need of the experiment. […] Intraperitoneal injections (IP) were performed on vigil mice, in the lower right abdominal quadrant. For blood collection, mice were either punctured in the heart (terminal procedure), or gently pressed at the tail following tail pricks (vigil). […] The animals were sacrificed by CO2 inhalation followed by cervical dislocation. All compounds injected in mice were either USP grade, sterile, or filtered using 0.22 μm.
(§2) Six hours before the Ip-GTT, the mice were fasted by removing the food, the enrichment, and by placing them in a new cage to avoid coprophagy. Access to water was, however kept free and ad libitum for the entire experiment. Five minutes before the Ip-GTT, basal glycemia was measured by taking a small drop of blood using tail pricks.
In the other cohorts, 2a,3a was SC administered following either 10 mg/kg (25 nmol), 30 mg/kg (75 nmol), or three injections of 10 mg/kg, 1 per week for 3 weeks (30 mg/kg total, 75 nmol total).
as §1

[3] = test system: WT Swiss mice; assay: Intraperitoneal glucose tolerance test (Ip-GTT) in WT Swiss mice; settings: Ip-GTT after injection
Protocol: as §2

## CC[C@H](C)[C@H](NC(=O)[C@H](Cc1ccccc1)NC(=O)[C@H](CCC(=O)O)NC(=O)[C@H](CCCCNC(=O)COCCOCCNC(=O)COCCOCCNC(=O)CC[C@H](NC(=O)CCCCCCCCCCCCCCCCC(=O)O)C(=O)O)NC(=O)[C@H](C)NC(=O)[C@H](C)NC(=O)[C@H](CCC(N)=O)NC(=O)CNC(=O)[C@H](CCC(=O)O)NC(=O)[C@H](CC(C)C)NC(=O)[C@H](Cc1ccc(O)cc1)NC(=O)[C@H](CO)NC(=O)[C@H](CO)NC(=O)[C@@H](NC(=O)[C@H](CC(=O)O)NC(=O)[C@H](CO)NC(=O)[C@@H](NC(=O)[C@H](Cc1ccccc1)NC(=O)[C@@H](NC(=O)CNC(=O)[C@H](CCC(=O)O)NC(=O)C(C)(C)NC(=O)[C@@H](N)Cc1cnc[nH]1)[C@@H](C)O)[C@@H](C)O)C(C)C)C(=O)N[C@@H](C)C(=O)N[C@@H](Cc1c[nH]c2ccccc12)C(=O)N[C@@H](CC(C)C)C(=O)N[C@H](C(=O)N[C@@H](CCCNC(=N)N)C(=O)NCC(=O)N[C@@H](CCCNC(=N)N)C(=O)NCC(=O)O)C(C)C [Semaglutide]
[1]; Lep^ob/ob obese mice
  Tolerability, both routes (SC and IP): significantly impact the mice behavior and induce hypoglycemia
[1]; female Lep^ob/ob mice, IP
  Mean fasting blood glucose: 104 ± 6 mg/dL
  Number of mice showing significant aggressiveness: 3
[1]; female Lep^ob/ob mice, SC
  Mean fasting blood glucose: 97 ± 7 mg/dL
  Number of mice showing significant aggressiveness: 3
  Number of mice with Piloerection, Moderate: 3
[1]; male Lep^ob/ob mice, IP
  Mean fasting blood glucose: 111 ± 14 mg/dL
  Number of mice showing significant aggressiveness: 3
[1]; male Lep^ob/ob mice, SC
  Mean fasting blood glucose: 75 ± 12 mg/dL
  Number of mice showing significant aggressiveness: 3
  Number of mice with Piloerection, Moderate: 3
[2]; SC 0.5 mg/kg, cohort of 5 mice
  Number of mice with Aggressiveness: 0
  Number of mice with Piloerection Mild: 0
  Number of mice with Piloerection Severe: 0
  Number of mice with Piloerection, Moderate: 0
[2]; SC 3 mg/kg, cohort of 5 mice
  Number of mice with Piloerection Mild: 0
[2]; SC 10 mg/kg, cohort of 15 mice
  Number of mice with Piloerection Mild: 0
[2]; SC 10 mg/kg, cohort of 15 mice, time per cell footnote (¤ over 48 h)
  Number of mice with Piloerection, Moderate: 0
[3]
  Hypoglycemia: induce hypoglycemia
